Reference: PMC12040169 (PLOS Biology, 2025)

Experiment: in vitro
Details: human, hela cells, % viability

SMILES | viability at 28.5 h, 10 µM
O=C(NCCN1CCCC1)c1ccc2nc[nH]c2c1 [CBK153311] | 86%
CCOc1cc(CNC2C3CC4CC(C3)CC2C4)cc(Cl)c1OCC(N)=O (centres unmarked) [CBK265734C] | 103%
COCCN1C(=O)C2(CC(=O)N(CCN3CCCC3=O)C2=O)c2cc(OC)ccc21 (centres unmarked) [CBK075189] | 92.4%
CC(C)c1cc(C(=O)N2CC(N3CCOCC3)C2)nc2ncnn12 [CBK306572] | 86.9%
CC(=O)NCCc1ccc(S(=O)(=O)N2CCN(Cc3ccccc3)CC2)cc1 [CBK268458] | 94.8%
Cc1ccc(-c2nc(Nc3ccc(F)cc3)sc2CC(=O)O)cc1 [CBK264286] | 89.4%
COc1ccc([C@@H](O)[C@H]2CCCNC2)cc1 [CBK282298] | 86.3%
CCn1cc(CN(C)C(=S)Nc2cccc(C(C)=O)c2)c(C)n1 [CBK267040] | 106%
O=C(NCC1CCCCC1)c1ccccc1-n1cccc1 [CBK149603] | 91.7%
CCOc1ccc(S(=O)(=O)N2CCC(C(=O)N3CCOCC3)CC2)cc1Cl [CBK270288] | 93.8%
N#Cc1c(O)nc(SCC(=O)Nc2ccc(Oc3ccccc3)cc2)nc1-c1ccccc1 [CBK266607] | 118%
O=C(Cn1ccc2ccnc(-c3cccs3)c21)NCc1ccncc1 [CBK284734] | 86.5%
COC(=O)C1CC2CCC1(C)CC21NC(=O)c2ccccc2N1 (centres unmarked) [CBK284440] | 100%
CCN1CCN(C(=O)c2ccc(N(C)C)cc2)CC1 [CBK200252] | 96.4%
COc1cc(CCc2cc(O)n3nc(-c4cccc(C)c4)c(C)c3n2)on1 [CBK285691] | 99.8%
CCC1=NN2C(=N)/C(=C/c3ccc(OC)cc3)C(=O)N=C2S1 [CBK101905] | 95.6%
COc1ccc2c(c1)C1(CC(=O)N(Cc3cccnc3)C1=O)C(=O)N2C (centres unmarked) [CBK075236] | 103%
Nc1cc2cccnc2nc1-c1ccc(OC(F)(F)F)cc1 [CBK067616] | 93.8%
Cc1ccc(C(=O)Nc2cccc(-c3nc4ncccc4o3)c2C)cc1[N+](=O)[O-] [CBK262793] | 94.3%
O=C(c1nccs1)C1CCN(C(=O)CC2CCCC2)CC1 [CBK284207] | 107%
CC(NC(=O)CCc1cscn1)c1nc(-c2ccncc2)cs1 (centres unmarked) [CBK305260] | 77.6%
COc1cc(-c2cn3ccnc3c(NCC3CCOCC3)n2)cc(OC)c1OC [CBK037284] | 96.8%

SMILES | viability at 28.5 h, 10 µM
Cc1ccc(CS(=O)(=O)N(C)C2CCN(C)C(C)C2)c(F)c1 (centres unmarked) [CBK305484] | 90.4%
Cc1cc(C(=O)N2CCCc3ccccc32)n[nH]1 [CBK200346] | 92%
Cc1ccc(C(=O)O)cc1S(=O)(=O)N(CCO)CCO [CBK267335] | 102%
C[C@H]1CN([C@H]2C[C@@H](O)[C@@H](CO)O2)C(=O)NC1=O [CBK201206] | 96.9%
O=C(c1ccc2c(c1)N(Cc1ccccc1Cl)C(=O)CO2)c1cccs1 [CBK286411] | 94.2%
CCNC(=O)C1CCN(Cc2nc(-c3cc(OC)ccc3F)oc2C)C1 (centres unmarked) [CBK307040] | 98.4%
O=C(NCCN1CCOCC1)C1CC2CCC1C2 (centres unmarked) [CBK026764] | 115%
O=C(Nc1ccc2n(c1=O)C[C@H]1C[C@@H]2CN(C(=O)NC2CCCCC2)C1)c1cnccn1 [CBK289076] | 86.8%
CCN1CC(C(=O)NCc2ccc(CN3CCCCC3)cc2)CC1=O (centres unmarked) [CBK281400] | 87.3%
CCN(Cc1ccc(C#N)cc1F)C(=O)NC(C)c1cnn(C)c1C (centres unmarked) [CBK305643] | 108%
CCCn1cnnc1C(C)NS(=O)(=O)c1cccc(C(=O)N2CCC2)c1 (centres unmarked) [CBK306569] | 103%
C#CCOC(=O)Nc1cnc(N2CCOCC2)c(C(F)(F)F)c1 [CBK019679] | 90.5%
CC1CCC(C(N)=O)CN1C(=O)c1cc(Br)c[nH]1 (centres unmarked) [CBK305769] | 94%
NC(=O)c1cccc(-c2nccnc2N2CCN(CCO)CC2)c1 [CBK036726] | 96.9%
COc1ccc(-c2ccc(Nc3cccc(N(C)C)c3)nc2)cc1OC [CBK037606] | 90%
Cc1oc2c(c1C(=O)NCCSc1nncn1C)C(=O)CCC2 [CBK306589] | 92.5%
Cc1cc(NC(=O)CN2CCN(c3ccc(F)cc3)CC2)nc2c1c(=O)oc1ccccc12 [CBK291232] | 88.8%
CC(NC(C)(C)C)C(O)COc1ccc(Cl)c2c1C1CCC2CC1 (centres unmarked) [CBK017752C] | 89.6%
COC(=O)c1ccccc1NC(=O)CSc1nnc(-c2sc(N)nc2C)o1 [CBK266250] | 100%
Cc1ccc2nc(NC3=NC(CC(=O)O)C(=O)N3)nc(C)c2c1 (centres unmarked) [CBK218806] | 90.3%
Cc1cc(N2CCN(C(=O)Cc3cccs3)CC2)nc(C(C)C)n1 [CBK305562] | 88.1%
Cc1sc(NC(=S)NC(=O)Cc2cccc3ccccc23)c(C(N)=O)c1C [CBK266344] | 91.4%

SMILES | viability at 28.5 h, 10 µM
CC(=O)OC(Cn1c2ccccc2c2ccccc21)Cn1c2ccccc2c2ccccc21 [CBK262307] | 104%
c1cnn(CC2CCCN2c2ncnc3sccc23)c1 (centres unmarked) [CBK304968] | 92.5%
CC12CN3CC(C)(CN(C1)C3c1ccc([N+](=O)[O-])cc1)C2 (centres unmarked) [CBK262665] | 95.2%
NS(=O)(=O)c1ccc(N2N=C(c3ccccc3)CC2c2ccccc2)cc1 (centres unmarked) [CBK261511] | 95.9%
Clc1ccc(OCc2n[nH]c(-c3ccccn3)n2)cc1 [CBK269472] | 90.2%
COc1cc(CNC(=O)NC(=O)C2CCN(CCc3cccc(O)c3)CC2)cc(OC)c1OC [CBK034857] | 93.2%
CCN1CCN(C(=O)CN(CCc2ccccc2)S(C)(=O)=O)CC1 [CBK266666] | 91.8%
CCn1c(SCC(=O)Nc2ccccc2OC)nnc1-c1ccc(N)cc1 [CBK265859] | 111%
c1ccc(CSc2ncnc3c2oc2ccccc23)cc1 [CBK287398] | 103%
N#CC(C(=O)NC1CCCCC1)C(=O)c1nn(-c2ccccc2)c2c1CSc1ccccc1-2 (centres unmarked) [CBK017690] | 103%
Oc1cc(C(F)(F)F)nc(NCc2ccc3ccccc3c2)n1 [CBK003459] | 92.2%
Cc1cccc(OCC(=O)N2CCN(S(=O)(=O)c3ccc([N+](=O)[O-])cc3)CC2)c1 [CBK264221] | 89.9%
CCn1nc2c3ccccc3nc(C3CC3)n2c1=O [CBK284008] | 68.8%
Cc1nc(C)n(C(C)CNC(=O)Cc2coc3cc(C)c(C)cc23)n1 (centres unmarked) [CBK282577] | 106%
CC(=O)N1c2ccc(-c3cc4ccccn4c3)cc2CC1C (centres unmarked) [CBK285254] | 79.9%
CN(C)c1ccc(-c2cncc(NCc3ccc4c(c3)OCO4)n2)cc1 [CBK037190] | 108%
CCN1CC2(CCN(CCCCC3NC(=O)NC3=O)CC2)c2ccccc21 (centres unmarked) [CBK131489] | 96%
CCN(CC)C(=O)c1ccccc1NS(=O)(=O)c1ccc(OC)c(OC)c1 [CBK045423] | 92.6%
O=C(Nc1nc(-c2cccs2)cs1)c1ccc(F)cc1 [CBK287327] | 86.7%
COc1cc(C(=O)Nc2ncccc2OCCCC#N)ccc1C [CBK304568] | 85.7%

Same assay, conditions: human, hela cells, % viability, bulk resorufin, single well

SMILES | viability at 28.5 h, 10 µM
CC(C)N(CCc1cc2ccccc2o1)C(C)C [CBK011518C] | 113%
